Values quoted from earlier work, collected in PMC10410440, “Preclinical PK investigation of a novel IDO1/TDO dual inhibitor—SHR9146 in mouse plasma and tissues by LC-MS/MS” (Frontiers in Oncology, 2023).

Tested on: colon cancer (MC38) cells
Design: method as in earlier work
Settings: SHR9146 combined with the PD-1 antibody vs single PD-1 antibody or SHR9146, and vs PD-1 antibody combined with INCB024360 or NLG0919100; cited from earlier work

For `OCCn1cc(-c2ccc(N3CCC([C@H]4c5c(F)cccc5-c5cncn54)CC3)cc2)cn1` [SHR9146], the “inhibitory effect on colon cancer (MC38) cells” value is listed as “significantly better inhibitory effect”.
